Measured values published in patent US10092541B2, “Methods for the treatment of diseases ameliorated by PDE4 inhibition using dosage titration of apremilast” (CELGENE CORPORATION, priority 2014, dated 2018).
Marks after values point to notes of the source that are not given here.

Tested on: patients with moderate to severe plaque psoriasis
Assay: Esteem 1: randomized, double-blind, placebo controlled, multicenter clinical study in psoriasis
Type: in vivo, human
Details: for PASI-75, %: primary endpoint
Description: In the study 844 patients were enrolled; patients ranged in age from 18 to 83 years, with an overall median age of 46 years. The mean baseline body surface area (BSA) involvement was 25.19% (median 21.0%), the mean baseline PASI score was 19.07 (median 16.80), and the proportion of patients with sPGA score of 3 (moderate) and 4 (severe) at Baseline were 70.0% and 29.8%, respectively. Patients were randomized to Apremilast, in an amount of 30 mg twice per day (after the initial dose titration schedule) or placebo for the first 16 weeks, and from Weeks 16 to 32, all patients received Apremilast in an amount of 30 mg twice per day.
Target Dose: 30 mg (po) BID
Day 1: 10 mg in the morning
Day 2: 10 mg morning; 10 mg after noon
Day 3: 10 mg morning; 20 mg after noon
Day 4: 20 mg morning; 20 mg after noon
Day 5: 20 mg morning; 30 mg after noon
During the Randomized Treatment Withdrawal Phase (Weeks 32-52), patients originally randomized to Apremilast who achieved at least a 75% reduction in PASI score (PASI-75) at Week 32 were re-randomized to either placebo or Apremilast 30 mg BID. Patients who were re-randomized to placebo and who lost PASI-75 response at Week 32 compared to Baseline, were retreated with Apremilast 30 mg BID.

[1] = 77 PASI 75 responders re-randomized to apremilast 30 mg BID at Week 32
[2] = Week 16, 30 mg twice daily, n = 562, LOCF
[3] = Week 16, 30 mg twice daily, n = 562, LOCF, listed as Apremilast
[4] = Week 16, 30 mg twice daily, patients with baseline DLQI >5, n = 459
[5] = Week 16, 30 mg twice daily, patients with nail psoriasis at baseline, n = 363

In the case of `CCOc1cc([C@@H](CS(C)(=O)=O)N2C(=O)c3cccc(NC(C)=O)c3C2=O)ccc1OC` [apremilast, (+)-2-[1-(3-ethoxy-4-methoxyphenyl)-2-methylsulfonylethyl]-4-acetylaminoisoindoline-1,3-dione], the “Non-overlapping confidence intervals vs placebo in mean percentage improvement in PASI from baseline, first detected” value (30 mg twice daily) is reported as “as early as Week 2”, the “Responses to apremilast from Weeks 16 to 32” value (30 mg twice daily) is reported as “generally maintained” and the “regained PASI 75 response after re-treatment, %” value (64 patients re-randomized to placebo who re-initiated apremilast before Week 52 after losing PASI 75) is reported as 70.3%. The “PASI-75 response at Week 52, %” value [1] was 61.0%, the “at least 70% improvement in PASI score from baseline at Week 52, %” value [1] was 75.3% and the “Mean change in DLQI score” value [2] was −6.6. For the same compound, the “PASI-50, %” value [2] was “(58.7%)*”, the “PASI-90, %” value [2] was “(9.8%)*” and the “Percentage change in PASI score, mean (SD)” value [2] was −52.1%. The “Percentage change in PASI score, median (range)” value [2] was −59.0%, the “sPGA response (score 0 or 1 with at least two-point reduction), %” value [2] was 21.7% and the “sPGA response (score 0 or 1 with at least two-point reduction), %” value [3] was “(21.7%)*”. For the same compound, the “PASI-75, %” value [2] was 33.1%, the “PASI-75, %” value [3] was “(33.1%)*” and the “DLQI + PASI-50 response, %” value [4] was “(48.1%)*”. For the same compound, the “DLQI response (decrease of at least five points), %” value [4] was “(70.2%)*”, the “NAPSI-50, %” value [5] was “(33.3%)*” and the “Percentage change in NAPSI score, mean (SD)” value [5] was −22.5%. For the same compound, the “ScPGA score 0-1, %” value (Week 16, 30 mg twice daily, patients with scalp psoriasis (ScPGA at least 3) at baseline, n = 374) was “(46.5%)*”, the “Severity of the majority of adverse events” value (did not lead to discontinuation) was “mild to moderate” and the “5 most common adverse events (AEs)” value (human, in vivo) was “diarrhea, nausea, upper respiratory tract infection, tension headache, and headache”. The “Discontinuation due to upper respiratory tract infection” value (human, in vivo) was “No patient discontinued”, the “Discontinuations due to AEs: diarrhea” value (human, in vivo) was 0.8% and the “Discontinuations due to AEs: headache” value (human, in vivo) was 0.4%. The “Discontinuations due to AEs: nausea” value (human, in vivo) was 1.2%, the “Discontinuations due to AEs: tension headache” value (human, in vivo) was 0.2% and the “Mean percentage change from baseline in PASI score at Week 52” value (patients re-randomized to apremilast 30 mg BID at Week 32) was 80.5%. For the same compound, the “Median time to first loss of PASI 75 after re-randomization” value (patients re-randomized to apremilast at Week 32) was 17.7 weeks and the “signs and symptoms of psoriasis” value (study conclusion) was “significantly improved”.
